Assay results as given in patent US20250034182A1, “PHOSPHOLIPID COMPOUNDS AND METHODS OF MAKING AND USING THE SAME” (priority 2021, published 2025).

Tests used:
Format in all cases: cell-based
[1] = tested on: Recombinant Respiratory Syncytial virus strain A2 containing the firefly luciferase reporter (RSV-Fluc) in NHBE cells; experiment: RSV NHBE FLuc EC50 (Example I); details: human respiratory syncytial virus, 72 h, read-out: RSV NHBE FLuc EC50 (nM) (per Ex. I)
Source text: Normal human bronchial epithelial (NHBE) cells are purchased from Lonza (Walkersville, MD Cat #CC-2540) and maintained in Bronchial Epithelial Cell Growth Medium (BEGM) (Lonza, Walkersville, MD, Cat #CC-3170) with all provided supplements in the BulletKit. Cells are passaged 2-3 times per week to maintain sub-confluent densities and are used for experiments at passages 2-4.
Recombinant Respiratory Syncytial virus strain A2 containing the firefly luciferase reporter between the P and M genes (RSV-Fluc, 6.3×10^6 TCID50/mL) is purchased from Viratree (Durham, NC, Cat #R^145).
NHBE cells (5×10^3/well) are seeded in 100 μL white wall/clear bottom 96-well plates (Corning) with culture medium and are incubated for 24 hours at 37° C. with 5% CO2. On the following day, three-fold serial dilutions of compounds prepared in DMSO are added to the wells using the HP D300e digital dispenser with normalization to the highest concentration of DMSO in all wells. The cells are then infected with RSV-Fluc diluted with BEGM media at an MOI of 0.1 for a final volume of 200 μL media/well. Uninfected and untreated wells are included as controls to determine compound efficacy against RSV-Fluc. Following incubation with compound and virus for three days at 37° C. with 5% CO2, 100 μL of culture supernatant is removed from each well and replaced with 100 μL of ONE-Glo luciferase reagent (Promega, Madison, WI, Cat #E6110). The plates are gently mixed by rocking for 10 minutes at 21° C. and luminescence signal is measured using an Envision plate reader (PerkinElmer). Values are normalized to the uninfected and infected DMSO controls (0% and 100% infection, respectively). Non-linear regression analysis is applied to determine the compound concentration at which 50% luminescence signal is reduced (EC50) using the XLfit4 add-in for MICROSOFT®EXCEL®. All experiments are performed in duplicate with two technical repeats each.

[2] = RSV NHBE CC50 384 V2 (per Ex. U); details: human
[3] = tested on: Respiratory syncytial virus recombinant with luciferase (RSV-Luc5) in NHBE cells; experiment: NHBE RSV-Luc5 384-well assay (EC50 RSVFLUC NHBE-384, Example U); details: human respiratory syncytial virus, 72 h, read-out: RSV FLuc NHBE 384 EC50 (v2) (nM) (per Ex. U)
Procedure: Normal Human Bronchial Epithelial (NHBE) cells were purchased from Lonza (Walkersville, MD Cat #CC2540) and maintained in BEGM Bronchial Epithelial Cell (Growth Medium BulletKit (Lonza CC-3170).
Cells were thawed, expanded, and were used for experiments at passage 2. Respiratory syncytial virus recombinant with luciferase (RSV-Luc5) (≥1×10^7 Infectious Units/ml (IU/ml) determined by TCID50) was purchased from Microbiologics (Saint Cloud, MN). Viral replication was determined in NHBE cells in the following manner.
(§1) Compounds are prepared in 100% DMSO in 384-well polypropylene plates (Greiner, Monroe, NC, Cat #784201) with 8 compounds per plate in grouped replicates of 4 at 10 serially diluted concentrations (1:3). The serially diluted compounds were transferred to low dead volume Echo plates (Labcyte, Sunnyvale, CA, Cat #LP-0200).
The test compounds were spotted to 384-well assay plates (Greiner, Monroe, NC, Cat #781091) at 200 nL per well. NHBE cells were harvested and suspended in BEGM Bronchial Epithelial Cell Growth Medium BulletKit and seeded to the pre-spotted assay plates at 5,000 cells per well in 30 μL. RSV-Luc5 virus was diluted in BEGM Bronchial Epithelial Cell Growth Medium BulletKit at 500,000 Infectious Units (IU) per mL and 10 μL per well was added to the assay plates containing cells and compounds, for an MOI of 1. The assay plates were incubated for 3 days at 37° C. and 5% CO2. At the end of incubation, One-Glo reagent (Promega, Madison, WI, Cat #E6120) was prepared. The assay plates and One-Glo reagent were equilibrated to room temperature for at least 15 minutes. 40 μL per well of One-Glo reagent was added and the plates were incubated at room temperature for 15 minutes before reading the luminescence signal on an EnVision multimode plate reader (Perkin Elmer, Waltham, MA). Remdesivir was used as positive control and DMSO was used as negative control. Values were normalized to the positive and negative controls (as 0% and 100% replication, respectively) and data was fitted using non-linear regression analysis by Gilead's dose response tool. The EC50 value for each compound was defined as the concentration reducing the viral replication by 50%.

[4] = RSV HEP2-CC50-384-V2 (per Ex. V); details: human
[5] = in vitro; details: human
Procedure: (§2) Huh7 hepatoblastoma cells were seeded onto 96-well plates and incubated at 37° C. with 5% CO2 overnight. The plates were seeded at a cell concentration that will yield >70% confluent monolayers in each well after overnight incubation. Eight 3-fold serial dilutions of compounds were diluted in test media (MEM supplemented with 2% FBS and 50 μg/mL gentamicin). The highest test compound concentration was 50 μg/mL. 100 μL of each concentration was added to 5 test wells on the 96-well plate. Of these 5 test wells, 3 wells of each dilution were infected with dengue virus type 2, diluted in test media (approximately 2000 CCID50 per well for an MOI of 0.07). Test medium (100 μL) with no virus was added to 2 wells to represent the uninfected cytotoxicity controls. Six additional infected wells received 100 μL media alone as untreated virus controls. Further, 100 μL of media alone was added to 6 uninfected wells to serve as uninfected, untreated controls. Cultures were incubated at 37° C.+5% CO2 until >80% CPE is observed. After cytopathic effect (CPE) is observed microscopically, 0.011% neutral red dye was added for approximately 2 hours. The neutral red dye was removed and wells were rinsed once with PBS to remove residual, unincorporated dye. A 50:50 Sorensen citrate buffer/ethanol solution was added and incubated at room temperature for >30 minutes with agitation, followed by measurement of neutral red dye using a spectrophotometer at 540 nm. The resulting optical density measurement was converted to percent signal of the infected, untreated cell control normalizing to virus controls. EC50 and CC50 values were determined by linear regression analysis.

[6] = tested on: Respiratory syncytial virus recombinant with luciferase (RSV-Luc5) in HEp-2 cells; experiment: HEp-2 RSV-Luc5 384-well assay (EC50 RSVFLUC Hep2-384 v2, Example V); details: human respiratory syncytial virus, HEp-2, 72 h, read-out: RSV Hep-2 FLuc EC50 (v2) (nM) (per Ex. V)
Source text: HEp-2 cell line was purchased from ATCC (Manassas, VA Cat #CCL-23) and maintained in Dulbecco's […] (DMEM) (Corning, New York, NY, Cat #15-018CM) supplemented with 10% fetal bovine serum (FBS) (Hyclone, Logan, UT, Cat #SH30071-03) and 1× Penicillin-Streptonycin-L-Glutamine (Corning, New York, NY, Cat #30-009-CI). Cells were passaged 2 times per week to maintain sub-confluent densities and were used for experiments at passage 5-20. Respiratory syncytial virus recombinant with luciferase (RSV-Luc5) (≥1×107 TCID50/ml) was purchased from Microbiologics (Saint Cloud, MN). Viral replication was determined in HEp-2 cells in the following manner.
as §1
The test compounds were spotted to 384-well assay plates (Greiner, Monroe, NC, Cat #781091) at 200 nL per well. HEp-2 cells were harvested and suspended in DMEM (supplemented with 10% FBS and 1× Penicillin-Streptomycin-L-Glutamine) and seeded to the pre-spotted assay plates at 4,000 cells per well in 30 μL. RSV-Luc5 viruses were diluted in DMEM (supplemented with 10% FBS and 1× Penicillin-Streptomycin-L-Glucamine) at 200,000 Infectious Units (IU) per mL and 10 μL per well was added to the assay plates containing cells and compounds, for an MOI=0.5. The assay plates were incubated for 3 days at 37° C. and 5% CO2. At the end of incubation, One-Glo reagent (Promega, Madison, WI, Cat #E6120) was prepared. The assay plates and One-Glo reagent were equilibrated to room temperature for at least 15 minutes. 40 μL per well of One-Glo reagent was added and the plates were incubated at room temp for 15 minutes before reading the luminescence signal on an EnVision multimode plate reader (Perkin Elmer, Waltham, MA). Remdesivir was used as positive control and DMSO was used as negative control. Values were normalized to the positive and negative controls (as 0% and 100% replication, respectively) and data was fitted using non-linear regression analysis by Gilead's dose response tool. The EC50 value for each compound was then determined as the concentration reducing the viral replication by 50%.

[7] = tested on: dengue virus type 2 in Huh7 hepatoblastoma cells; experiment: Dengue Virus-2 Huh-7 EC50 (Example W); details: MOI of 0.07, CPE, neutral red dye, read-out: Dengue Virus-2 Huh-7 EC50 (nM) (per Ex. W)
Procedure: as §2

[8] = tested on: Human Rhinovirus 14 (HRV14) in H1-HeLa cells; experiment: H1-HeLa HRV-CTG EC50, HRV14 (Example Z); details: Rhinovirus B, HRV14, 96 h, MOI 1.0, 4 days, Celltiter-Glo, read-out: HRV14 HELA EC50 (nM) (per Ex. Z)
Source text: (§3) H1-Hela cell line (ATCC, Manassas, VA, Cat #CRL-1958) was maintained in Dulbecco's […] (DMEM) (Corning, New York, NY, Cat #15-018CM) supplemented with 10% fetal bovine serum (FBS) (Hyclone, Logan, UT, Cat #SH30071-03), and 1× Penicillin-Streptomycin-L-Glutamine (Coming, New York, NY, Cat #30-009-C1). Cells were passaged 2 times per week to maintain sub-confluent densities and were used for experiments at passage 5-30. The Human Rhinovirus 1B (HRV1B) (ATCC, Manassas, VA, Cat #VR-1645), Human Rhinovirus 14 (HRV14) (ATCC, Manassas, VA, Cat #VR-284), and Human Rhinovirus 16 (HRV16) (ATCC, Manassas, VA, Cat #BR-283) was obtained through ATCC. Viral infection was monitored by determining viability of H1-HeLa cells as described below.
as §1, with “Test molecules” for “Compounds”
(§4) The test compounds were spotted to 384-well assay plates (Greiner, Monroe, NC, Cat #781091) at 200 nL per well using an Echo acoustic dispenser (Labcyte, Sunnyvale, CA). H1-HeLa cells were harvested and suspended in DMEM (supplemented with 2% FBS and 1× Penicillin-Streptomycin-L-Glutamine) and seeded to the pre-spotted assay plates at 5,000 cells per well in 30 μL. HRV1B, HRV14, and HRV16 was diluted in DMEM (supplemented with 2% FBS and 1× Penicillin-Streptomycin-L-Glutamine) at 97.1 million Infectious Units (IU) per mL, 151 million IU per mL and 221 million IU per mL respectively. 10 μL of virus per well was added to the assay plates containing cells and compounds, for an MOI of 0.5, 1.0, and 0.25 respectively. The assay plates were incubated for 4 days at 37° C. and 5% CO2. At the end of incubation, Celltiter-Glo (Promega, Madison, WI, Cat #G7573) was prepared. The assay plates and Celltiter-Glo reagent were equilibrated to room temperature for at least 15 minutes. 40 μL per well of Celltiter-Glo reagent was added and the plates were incubated at room temperature for 15 minutes before reading the luminescence signal on an EnVision multimode plate reader (Perkin Elmer, Waltham, MA). Rupintrivir was used as positive control and DMSO was used as negative control. Values were normalized to the positive and negative controls (as 0% and 100% replication, respectively) and data was fitted using non-linear regression analysis by Gilead's dose response tool. The EC50 value for each compound was defined as the concentration reducing viral replication by 50%.

[9] = tested on: Human Rhinovirus 16 (HRV16) in H1-HeLa cells; experiment: H1-HeLa HRV-CTG EC50, HRV16 (Example Z); details: Rhinovirus A, HRV16, 96 h, MOI 0.25, 4 days, Celltiter-Glo, read-out: HRV 16 HELA EC50 (nM) (per Ex. Z)
Source text: as §3
as §1, with “Test molecules” for “Compounds”
as §4

[10] = tested on: Human Rhinovirus 1B (HRV1B) in H1-HeLa cells; experiment: H1-HeLa HRV-CTG EC50, HRV1B (Example Z); details: Rhinovirus A, 96 h, MOI 0.5, 4 days, Celltiter-Glo, read-out: HRV 1B HELA EC50 (nM) (per Ex. Z)
Source text: as §3
as §1, with “Test molecules” for “Compounds”
as §4

Structure (SMILES)	EC50 [1]	CC50 at 3 days [2]	EC50 [3]	CC50 at 3 days [4]	CC50 [5]	EC50 [6]	EC50 [7]	EC50 [8]	EC50 [9]	EC50 [10]
CCCCCCCCCCCCCCCCCCC[C@@H](COP(=O)(O)OC[C@@]1(C#N)O[C@@H](c2ccc3c(N)ncnn23)[C@H](O)[C@@H]1O)OCc1cc(F)cc(C#N)c1 [Compound 31, ((2R,3S,4R)-5-(4-aminopyrrolo[2,1-f][1,2,4]triazin-7-yl)-2-cyano-3,4-dihydroxytetrahydrofuran-2-yl)methyl ((S)-2-((3-cyano-5-fluorobenzyl)oxy)henicosyl) hydrogen phosphate]	229 nM	1900 nM	134 nM							
CCCCCCCCCCCCCCOC[C@H](COP(=O)(O)OC[C@@]1(C#N)O[C@@H](c2ccc3c(N)ncnn23)[C@H](O)[C@@H]1O)Oc1ccc(C#N)cn1 [Compound 71]	199 nM			> 50000 nM	> 50000 nM	2580 nM	33000 nM			
CCCCCCCCCCCCCCCOC[C@H](COP(=O)(O)OC[C@@]1(C#N)O[C@@H](c2ccc3c(N)ncnn23)[C@H](O)[C@@H]1O)OCc1cc(F)cc(C#N)c1 [Compound 99, ((2R,3S,4R,5S)-5-(4-aminopyrrolo[2,1-f][1,2,4]triazin-7-yl)-2-cyano-3,4-dihydroxytetrahydrofuran-2-yl)methyl ((R)-2-((3-cyano-5-fluorobenzyl)oxy)-3-(pentadecyloxy)propyl) hydrogen phosphate]		1140 nM	47 nM	42300 nM		166 nM		37 nM	33 nM	19 nM
